ChEMBL document CHEMBL1201862, “PubChem BioAssay data set” (2004)
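Step 1: Grow cells in 96-well plates. Step 2: Expose to compound for 48 hours at 5 concentrations. Step 3: Interpolate endpoints linearly; if unreached, use highest concentration. The concentration for 50% growth inhibition is given as GI50.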 Activity calls are given as the source filed them. Rule as the data show it: active = GI50 up to about 1.1 µM and inactive = higher.

Assays:
Assay in all cases: DTP human tumour cell line panel, 48 h
SK-MEL-2 = tested on: SK-MEL-2
HL-60 = tested on: HL-60
NCI-H460 = tested on: NCI-H460
SNB-19 = tested on: SNB-19
SK-OV-3 = tested on: SK-OV-3
HCC 2998 = tested on: HCC 2998
ACHN = tested on: ACHN
HOP-62 = tested on: HOP-62
A549 = tested on: A549
RPMI-8226 = tested on: RPMI-8226
SK-MEL-28 = tested on: SK-MEL-28
CAKI-1 = tested on: CAKI-1
SK-MEL-5 = tested on: SK-MEL-5
MDA-N = tested on: MDA-N
NCI-H522 = tested on: NCI-H522
NCI-H226 = tested on: NCI-H226
SNB-75 = tested on: SNB-75
UACC-257 = tested on: UACC-257
K562 = tested on: K562
MDA-MB-231 = tested on: MDA-MB-231
COLO 205 = tested on: COLO 205
HOP-92 = tested on: HOP-92
DU-145 = tested on: DU-145
Malme-3M = tested on: Malme-3M
PC-3 = tested on: PC-3
HT-29 = tested on: HT-29
EKVX = tested on: EKVX
SN12C = tested on: SN12C
TK-10 = tested on: TK-10
UO-31 = tested on: UO-31
MDA-MB-435 = tested on: MDA-MB-435
HCT-15 = tested on: HCT-15
MCF7 = tested on: MCF7
UACC-62 = tested on: UACC-62
SW-620 = tested on: SW-620
NCI/ADR-RES = tested on: NCI/ADR-RES
NCI-H23 = tested on: NCI-H23
HCT-116 = tested on: HCT-116
T47D = tested on: T47D
M14 = tested on: M14
U-251 = tested on: U-251
KM12 = tested on: KM12
Hs-578T = tested on: Hs-578T
SF-539 = tested on: SF-539
A498 = tested on: A498
OVCAR-5 = tested on: OVCAR-5
SF-268 = tested on: SF-268
LOX IMVI = tested on: LOX IMVI
BT-549 = tested on: BT-549
CCRF-CEM = tested on: CCRF-CEM
OVCAR-4 = tested on: OVCAR-4
OVCAR-3 = tested on: OVCAR-3
SF-295 = tested on: SF-295
SR = tested on: SR
RXF 393 = tested on: RXF 393
MOLT-4 = tested on: MOLT-4
786-0 = tested on: 786-0
OVCAR-8 = tested on: OVCAR-8
IGROV-1 = tested on: IGROV-1

O=c1c(-c2nc3ccccc3c3ccccc3c2=O)nc2ccccc2c2ccccc12
GI50 (SK-MEL-2): 27.4 µM (inactive)
GI50 (HL-60): 20 µM (inactive)
GI50 (NCI-H460): 41.3 µM (inactive)
GI50 (SNB-19): 30.3 µM (inactive)
GI50 (SK-OV-3): > 100 µM (inactive)
GI50 (HCC 2998): 21.9 µM (inactive)
GI50 (ACHN): 36.1 µM (inactive)
GI50 (HOP-62): 34.8 µM (inactive)
GI50 (A549): 48 µM (inactive)
GI50 (RPMI-8226): 26.2 µM (inactive)
GI50 (SK-MEL-28): 55.5 µM (inactive)
GI50 (CAKI-1): 38.9 µM (inactive)
GI50 (SK-MEL-5): 24.8 µM (inactive)
GI50 (MDA-N): 24.3 µM (inactive)
GI50 (NCI-H522): 37.1 µM (inactive)
GI50 (NCI-H226): > 100 µM (inactive)
GI50 (SNB-75): 32.1 µM (inactive)
GI50 (UACC-257): 33.8 µM (inactive)
GI50 (K562): 32.9 µM (inactive)
GI50 (MDA-MB-231): 34 µM (inactive)
GI50 (COLO 205): 38.4 µM (inactive)
GI50 (HOP-92): 37.1 µM (inactive)
GI50 (DU-145): 80.9 µM (inactive)
GI50 (Malme-3M): 76.6 µM (inactive)
GI50 (PC-3): 27.7 µM (inactive)
GI50 (HT-29): 43.5 µM (inactive)
GI50 (EKVX): 50.1 µM (inactive)
GI50 (SN12C): 28.6 µM (inactive)
GI50 (TK-10): 48.4 µM (inactive)
GI50 (UO-31): 90.2 µM (inactive)
GI50 (MDA-MB-435): 29.2 µM (inactive)
GI50 (HCT-15): 32.7 µM
GI50 (MCF7): 38 µM (inactive)
GI50 (UACC-62): 30.2 µM (inactive)
GI50 (SW-620): 33.7 µM (inactive)
GI50 (NCI/ADR-RES): 34 µM (inactive)
GI50 (NCI-H23): 40 µM (inactive)
GI50 (HCT-116): 23.8 µM (inactive)
GI50 (T47D): 32.6 µM (inactive)
GI50 (M14): 35.2 µM (inactive)
GI50 (U-251): 22.2 µM (inactive)
GI50 (KM12): 38.3 µM (inactive)
GI50 (Hs-578T): 51.4 µM (inactive)
GI50 (SF-539): 24.5 µM (inactive)
GI50 (A498): 35.7 µM (inactive)
GI50 (OVCAR-5): 80.4 µM (inactive)
GI50 (SF-268): 41 µM (inactive)
GI50 (LOX IMVI): 32.1 µM (inactive)
GI50 (BT-549): 47.1 µM (inactive)
GI50 (CCRF-CEM): 28.1 µM (inactive)
GI50 (OVCAR-4): 37.5 µM (inactive)
GI50 (OVCAR-3): 28.4 µM (inactive)
GI50 (SF-295): 29.7 µM (inactive)
GI50 (SR): 21.9 µM (inactive)
GI50 (RXF 393): 26.8 µM (inactive)
GI50 (MOLT-4): 34.6 µM (inactive)
GI50 (786-0): 36 µM (inactive)
GI50 (OVCAR-8): 27.7 µM (inactive)
GI50 (IGROV-1): 44.9 µM (inactive)

COc1ccc(N2C(=O)C3c4[nH]c5ccc([N+](=O)[O-])cc5c4C4CCC(C(C)(C)C)CC4C3C2=O)cc1 (stereo not drawn)
GI50 (SK-MEL-2): 26.1 µM (inactive)
GI50 (HL-60): 8.02 µM (inactive)
GI50 (NCI-H460): 2.15 µM (inactive)
GI50 (SNB-19): 35.7 µM (inactive)
GI50 (SK-OV-3): > 100 µM (inactive)
GI50 (HCC 2998): 10.9 µM (inactive)
GI50 (ACHN): 9.75 µM (inactive)
GI50 (HOP-62): 24.4 µM (inactive)
GI50 (A549): 6.28 µM (inactive)
GI50 (RPMI-8226): 13.3 µM (inactive)
GI50 (SK-MEL-28): 61.7 µM (inactive)
GI50 (CAKI-1): 18.3 µM (inactive)
GI50 (SK-MEL-5): 12.4 µM (inactive)
GI50 (MDA-N): 20.3 µM (inactive)
GI50 (NCI-H522): 19.9 µM (inactive)
GI50 (NCI-H226): 28 µM (inactive)
GI50 (SNB-75): 7.28 µM (inactive)
GI50 (UACC-257): 35.2 µM (inactive)
GI50 (K562): 2.52 µM (inactive)
GI50 (MDA-MB-231): 5.18 µM (inactive)
GI50 (COLO 205): 4.82 µM (inactive)
GI50 (HOP-92): 6.9 µM (inactive)
GI50 (DU-145): 32.8 µM (inactive)
GI50 (Malme-3M): 28.4 µM (inactive)
GI50 (PC-3): 5.21 µM (inactive)
GI50 (HT-29): 3.96 µM (inactive)
GI50 (EKVX): 15.5 µM (inactive)
GI50 (SN12C): 15.2 µM (inactive)
GI50 (TK-10): 25.2 µM (inactive)
GI50 (UO-31): 16.3 µM (inactive)
GI50 (MDA-MB-435): 18.7 µM (inactive)
GI50 (HCT-15): 14.4 µM
GI50 (MCF7): 4.45 µM (inactive)
GI50 (UACC-62): 24 µM (inactive)
GI50 (SW-620): 37.1 µM (inactive)
GI50 (NCI/ADR-RES): 9.62 µM (inactive)
GI50 (NCI-H23): 6.53 µM (inactive)
GI50 (HCT-116): 3.24 µM (inactive)
GI50 (T47D): 27.5 µM (inactive)
GI50 (M14): 14.8 µM (inactive)
GI50 (U-251): 19.3 µM (inactive)
GI50 (KM12): 6.5 µM (inactive)
GI50 (Hs-578T): 25.4 µM (inactive)
GI50 (SF-539): 15.2 µM (inactive)
GI50 (A498): 2.26 µM (inactive)
GI50 (OVCAR-5): 18.5 µM (inactive)
GI50 (SF-268): 10.1 µM (inactive)
GI50 (LOX IMVI): 15.2 µM (inactive)
GI50 (BT-549): 14.5 µM (inactive)
GI50 (CCRF-CEM): 4.51 µM (inactive)
GI50 (OVCAR-4): 14.8 µM (inactive)
GI50 (OVCAR-3): 7.29 µM (inactive)
GI50 (SF-295): 13.7 µM (inactive)
GI50 (SR): 3.72 µM (inactive)
GI50 (RXF 393): 3.33 µM (inactive)
GI50 (MOLT-4): 14.3 µM (inactive)
GI50 (786-0): 11.4 µM (inactive)
GI50 (OVCAR-8): 23.6 µM (inactive)
GI50 (IGROV-1): 7.66 µM (inactive)
